Results published in patent US20220089592A1, “IMIDAZO[1,2-A]PYRIDINYL DERIVATIVES AS IRAK4 INHIBITORS” (priority 2019, published 2022).

Target: T1, IRAK4 (Homo sapiens, UniProt Q9NWZ3)
T1 sequence (Q9NWZ3 1-460): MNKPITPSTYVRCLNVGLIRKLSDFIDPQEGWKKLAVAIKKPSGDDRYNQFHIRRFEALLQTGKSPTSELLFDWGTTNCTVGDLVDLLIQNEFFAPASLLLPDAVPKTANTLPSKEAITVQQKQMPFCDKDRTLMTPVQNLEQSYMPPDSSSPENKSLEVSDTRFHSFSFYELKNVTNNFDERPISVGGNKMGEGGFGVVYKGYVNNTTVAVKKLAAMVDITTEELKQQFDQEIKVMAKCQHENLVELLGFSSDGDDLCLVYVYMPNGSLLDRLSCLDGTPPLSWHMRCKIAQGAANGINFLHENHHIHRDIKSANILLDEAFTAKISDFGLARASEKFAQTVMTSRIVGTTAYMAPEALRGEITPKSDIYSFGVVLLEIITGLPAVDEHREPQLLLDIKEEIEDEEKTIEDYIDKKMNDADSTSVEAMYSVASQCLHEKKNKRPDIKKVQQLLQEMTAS
Test: 2-hour 1 mM ATP IRAK4 Biochemical assay (as above, but with 100 pM IRAK4 and 1 mM ATP)
Settings: IRAK4 MSD BIOCHEMICAL (1 mM ATP) IC50 (μM), 100 pM IRAK4, 2 hours
Outline: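 Run with 100 pM IRAK4 and 1 mM ATP for 2 hours, quenched with EDTA pH 8. Phosphorylated biotinylated peptide captured on streptavidin MSD plates and detected with anti-phosphothreonine antibody plus Sulfo-Tag secondary by electrochemiluminescence.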

| SMILES | IC50 [µM] |
| --- | --- |
| CCc1cc(NC(=O)c2cccc(C(F)F)n2)cn2cc(C3CCOCC3)nc12 [Example 290, 6-(difluoromethyl)-N-(8-ethyl-2-(tetrahydro-2H-pyran-4-yl)imidazo[1,2-a]pyridin-6-yl)picolinamide] | 0.013 |
| Cc1nc(NC(=O)c2cccc(C(F)F)n2)cn2cc(C3CCOCC3)nc12 [Example 296, 6-(difluoromethyl)-N-(8-methyl-2-(tetrahydro-2H-pyran-4-yl)imidazo[1,2-a]pyrazin-6-yl)picolinamide] | 0.089 |
| O=C(Nc1cn2cc(C3CCOCC3)nc2c(OCC(F)(F)F)n1)c1cccc(C(F)F)n1 [Example 303, 6-(difluoromethyl)-N-(2-(tetrahydro-2H-pyran-4-yl)-8-(2,2,2-trifluoroethoxy)imidazo[1,2-a]pyrazin-6-yl)picolinamide] | 0.038 |
| O=C(Nc1cc(OC(F)F)c2nc(C3CCOCC3)cn2c1)c1cccc(C(F)F)n1 [Example 307, N-(8-(difluoromethoxy)-2-(tetrahydro-2H-pyran-4-yl)imidazo[1,2-a]pyridin-6-yl)-6-(difluoromethyl)picolinamide] | 0.015 |
| O=C(Nc1cc(Cl)c2nc(C3CCOCC3)cn2c1)c1cccc(C(F)F)n1 [Example 308, N-(8-chloro-2-(tetrahydro-2H-pyran-4-yl)imidazo[1,2-a]pyridin-6-yl)-6-(difluoromethyl)picolinamide] | 0.043 |
| O=C(Nc1cn2cc(C3CCOCC3)nc2cc1C(F)(F)F)c1cccc(C(F)F)n1 [Example 312, 6-(difluoromethyl)-N-(2-(tetrahydro-2H-pyran-4-yl)-7-(trifluoromethyl)imidazo[1,2-a]pyridin-6-yl)picolinamide] | 0.052 |
| COC(C)c1cc2nc(C3CCOCC3)cn2cc1NC(=O)c1cccc(C(F)F)n1 (centres unmarked) [Example 313, 6-(difluoromethyl)-N-(7-(1-methoxyethyl)-2-(tetrahydro-2H-pyran-4-yl)imidazo[1,2-a]pyridin-6-yl)picolinamide] | 0.067 |
| COCc1cc2nc(C3CCOCC3)cn2cc1NC(=O)c1cccc(C(F)F)n1 [Example 314, 6-(difluoromethyl)-N-(7-(methoxymethyl)-2-(tetrahydro-2H-pyran-4-yl)imidazo[1,2-a]pyridin-6-yl)picolinamide] | 0.013 |
| Cc1cccc(C(=O)Nc2cn3cc(C4CCOCC4)nc3cc2C(F)F)n1 [Example 315, N-(7-(difluoromethyl)-2-(tetrahydro-2H-pyran-4-yl)imidazo[1,2-a]pyridin-6-yl)-6-methylpicolinamide] | 0.021 |
| CC(C)Oc1c(NC(=O)c2cccnc2OC(F)F)cn2cc(C34COC(C)(C3)C4)nc2c1F [Example 323, 2-(difluoromethoxy)-N-(8-fluoro-7-isopropoxy-2-(1-methyl-2-oxabicyclo[2.1.1]hexan-4-yl)imidazo[1,2-a]pyridin-6-yl)nicotinamide] | 0.073 |
| CCC(C)Oc1c(NC(=O)c2cccnc2OC)cn2cc(C34COC(C)(C3)C4)nc2c1F (centres unmarked) [Example 326, N-(7-(sec-butoxy)-8-fluoro-2-(1-methyl-2-oxabicyclo[2.1.1]hexan-4-yl)imidazo[1,2-a]pyridin-6-yl)-2-methoxynicotinamide] | 0.012 |
| COc1ncccc1C(=O)Nc1cn2cc(C34COC(C)(C3)C4)nc2c(F)c1OC1CCCC1 [Example 329] | 0.017 |
| COc1c(Cl)c(NC(=O)c2cccc(C(F)F)n2)cn2cc(C3CCOCC3)nc12 [Example 331, N-(7-chloro-8-methoxy-2-(tetrahydro-2H-pyran-4-yl)imidazo[1,2-a]pyridin-6-yl)-6-(difluoromethyl)picolinamide] | 0.031 |
| O=C(Nc1cn2cc(C3CCOCC3)nc2cn1)c1csc(C2CC2)n1 [Example 332, 2-cyclopropyl-N-(2-(tetrahydro-2H-pyran-4-yl)imidazo[1,2-a]pyrazin-6-yl)thiazole-4-carboxamide] | 0.108 |
| COc1nc(NC(=O)c2coc(C(F)F)n2)cn2cc(C3CCOCC3)nc12 [Example 333, 2-(difluoromethyl)-N-(8-methoxy-2-(tetrahydro-2H-pyran-4-yl)imidazo[1,2-a]pyrazin-6-yl)oxazole-4-carboxamide] | 0.044 |
| CC(C)Oc1nc(NC(=O)c2cccc(C(F)F)n2)cn2cc(C3CCOCC3)nc12 [Example 339, 6-(difluoromethyl)-N-(8-isopropoxy-2-(tetrahydro-2H-pyran-4-yl)imidazo[1,2-a]pyrazin-6-yl)picolinamide] | 0.016 |
| CC12CC(c3cn4cc(NC(=O)c5coc(C6CC6)n5)nc(OC5CCC5)c4n3)(CO1)C2 [Example 340, N-(8-cyclobutoxy-2-(1-methyl-2-oxabicyclo[2.1.1]hexan-4-yl)imidazo[1,2-a]pyrazin-6-yl)-2-cyclopropyloxazole-4-carboxamide] | 0.006 |
| CC12CCC(c3cn4cc(NC(=O)c5coc(C6CC6)n5)nc(OC5CCC5)c4n3)(CO1)C2 (centres unmarked) [Example 341, N-(8-cyclobutoxy-2-(1-methyl-2-oxabicyclo[2.2.1]heptan-4-yl)imidazo[1,2-a]pyrazin-6-yl)-2-cyclopropyloxazole-4-carboxamide] | 0.006 |
| O=C(Nc1cn2cc(C3CCOCC3)nc2c(N2CCCC2)n1)c1cccc(C(F)F)n1 [Example 342, 6-(difluoromethyl)-N-(8-(pyrrolidin-1-yl)-2-(tetrahydro-2H-pyran-4-yl)imidazo[1,2-a]pyrazin-6-yl)picolinamide] | 0.055 |

Further lines, results first:

| IC50 [µM] | SMILES |
| --- | --- |
| 0.001 | CC(C)(O)c1cc2nc(C3CCOCC3)cn2cc1NC(=O)c1cccc(C(F)F)n1 [Example 292, 6-(difluoromethyl)-N-(7-(2-hydroxypropan-2-yl)-2-(tetrahydro-2H-pyran-4-yl)imidazo[1,2-a]pyridin-6-yl)picolinamide] |
| 0.002 | CC(C)Oc1cc2nc(Cl)cn2cc1NC(=O)c1cccc(C(F)F)n1 [Example 294, N-(2-chloro-7-isopropoxyimidazo[1,2-a]pyridin-6-yl)-6-(difluoromethyl)picolinamide] |
| 0.004 | COc1c(NC(=O)c2cccc(C(F)F)n2)cn2cc(C34COC(C)(C3)C4)nc2c1C [Example 295, 6-(difluoromethyl)-N-(7-methoxy-8-methyl-2-(1-methyl-2-oxabicyclo[2.1.1]hexan-4-yl)imidazo[1,2-a]pyridin-6-yl)picolinamide] |
| 0.001 | COc1cc2nc(C34COC(C)(C3)C4)cn2cc1NC(=O)c1cccc(C(F)(F)F)n1 [Example 309, N-(7-methoxy-2-(1-methyl-2-oxabicyclo[2.1.1]hexan-4-yl)imidazo[1,2-a]pyridin-6-yl)-6-(trifluoromethyl)picolinamide] |
| 0.006 | COc1ccccc1C(=O)Nc1cn2cc(C34CC(C#N)(C3)C4)nc2cc1OC(C)C [Example 311, N-(2-(3-cyanobicyclo[1.1.1]pentan-1-yl)-7-isopropoxyimidazo[1,2-a]pyridin-6-yl)-2-methoxybenzamide] |
| 0.003 | CCOc1cc2nc(C(C)C#N)cn2cc1NC(=O)c1cccc(C(F)F)n1 (centres unmarked) [Example 316, N-(2-(1-cyanoethyl)-7-ethoxyimidazo[1,2-a]pyridin-6-yl)-6-(difluoromethyl)picolinamide] |
| 0.002 | CC(C)Oc1c(NC(=O)c2cccn(C(F)F)c2=O)cn2cc(C34COC(C)(C3)C4)nc2c1F [Example 324, 1-(difluoromethyl)-N-(8-fluoro-7-isopropoxy-2-(1-methyl-2-oxabicyclo[2.1.1]hexan-4-yl)imidazo[1,2-a]pyridin-6-yl)-2-oxo-1,2-dihydropyridine-3-carboxamide] |
| 0.002 | CC(C)Oc1c(NC(=O)c2ccn(C)n2)cn2cc(C34CCC(C)(C3)OC4)nc2c1F (centres unmarked) [Example 325, N-(8-fluoro-7-isopropoxy-2-(1-methyl-2-oxabicyclo[2.2.1]heptan-4-yl)imidazo[1,2-a]pyridin-6-yl)-1-methyl-1H-pyrazole-3-carboxamide] |
| 0.008 | COc1nc(NC(=O)c2cccc(C3CC3)n2)cn2cc(C3CCOCC3)nc12 [Example 334, 6-cyclopropyl-N-(8-methoxy-2-(tetrahydro-2H-pyran-4-yl)imidazo[1,2-a]pyrazin-6-yl)picolinamide] |
| 0.011 | CCCOc1nc(NC(=O)c2ccccc2OC)cn2cc(C34COC(C)(C3)C4)nc12 [Example 335, 2-methoxy-N-(2-(1-methyl-2-oxabicyclo[2.1.1]hexan-4-yl)-8-propoxyimidazo[1,2-a]pyrazin-6-yl)benzamide] |
| 0.003 | CC(C)Oc1nc(NC(=O)c2cccc3ccnn23)cn2cc(C34COC(C)(C3)C4)nc12 [Example 336, N-(8-Isopropoxy-2-(1-methyl-2-oxabicyclo[2.1.1]hexan-4-yl)imidazo[1,2-a]pyrazin-6-yl)pyrazolo[1,5-a]pyridine-7-carboxamide] |
| 0.006 | COc1ncccc1C(=O)Nc1cn2cc(C34COC(C)(C3)C4)nc2c(OC(C)C)n1 [Example 337, N-(8-isopropoxy-2-(1-methyl-2-oxabicyclo[2.1.1]hexan-4-yl)imidazo[1,2-a]pyrazin-6-yl)-2-methoxynicotinamide] |
| 0.002 | COc1cccn2ncc(C(=O)Nc3cn4cc(C56COC(C)(C5)C6)nc4c(OC(C)C)n3)c12 [Example 338, N-(8-isopropoxy-2-(1-methyl-2-oxabicyclo[2.1.1]hexan-4-yl)imidazo[1,2-a]pyrazin-6-yl)-4-methoxypyrazolo[1,5-a]pyridine-3-carboxamide] |
